A short description of this series: recombinant barcode read abundance after kanamycin selection (control-corrected) (log10(CPM+1)); higher = more efficient recombination; sequences stand for … in AGTGCAGAGAAAATCGGCCAGTTTTCTCTGCCTGCAGTCCGCATGCCGT…AGATTTATGCAGCGGACTGCCTTTCTCCCAAAGTGATAAACCGGACAGTATCATGGACCGGTTTTCCCGGTAATCCGTATTTGCAAGGTTGGTTTCACT; site = the 11-nt target. An outline of the steps:
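Values are log10(CPM+1) from a pooled E. coli screen of targets paired with IS621 bridge RNA target-binding loops. Recombination efficiency here means counts per million of recombinant-junction barcodes, averaged and control-corrected. Plates were chloramphenicol/ampicillin LB agar for the control and chloramphenicol/ampicillin/kanamycin with 0.1 mM IPTG, two replicates each.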

The text below walks through data of the supplement of paper PMC11208160.
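Further: IS621 recombinase and bridge RNA in Escherichia coli cells.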

Turning to “CCACTGCCTTGGGTTCTAACCTGTTGCCT (site CCACTGCCTAG)”, the “recombinant barcode read abundance (log10)” value amounted to 0.862. For “CCACTGCCTTGGGTTCTAACCTGTTGCCT (site CCACTTCCTAG)”, the “recombinant barcode read abundance (log10)” value came to 0.0699. In the case of “CCAGAGTCTTGGGTTCTAACCTGTTGCCG (site CCAGAGTCTCG)”, the “recombinant barcode read abundance (log10)” value stood at 0.288.

In the case of “CCAGAGTCTTGGGTTCTAACCTGTTGCCG (site CCAGAGTCTTG)”, the “recombinant barcode read abundance (log10)” value worked out at 0.152.

Regarding “CCAGATTCTTGGGTTCTAACCTGTTGCCT (site CAAGATTCTAG)”, the “recombinant barcode read abundance (log10)” value amounted to 0.154. On to “CCAGATTCTTGGGTTCTAACCTGTTGCCT (site CCAGATTCTAG)”, for which the “recombinant barcode read abundance (log10)” value came out at 0.206. Next, “CCAGATTCTTGGGTTCTAACCTGTTGCCT (site CGAGATTCTAG)”: 0.297; “CCAGATTCTTGGGTTCTAACCTGTTGCCT (site CTAGATTCTAG)”: 0.144; “CCAGTAGCTTGGGTTCTAACCTGTTGCGG (site CCAGAAGCTAC)”: 0.0355. Regarding “CCAGTAGCTTGGGTTCTAACCTGTTGCGG (site CCAGTAGCTCC)”, the “recombinant barcode read abundance (log10)” value came out at 1.01. As for “CCAGTATCTTGGGTTCTAACCTGTTGCAT (site CCAGTATCTAT)”, the “recombinant barcode read abundance (log10)” value was found to be 0.796. In the case of “CCAGTATCTTGGGTTCTAACCTGTTGCAT (site TAGCGGCCTCC)”, the “recombinant barcode read abundance (log10)” value came to 0.0866.

As for “CCATAGGCTTGGGTTCTAACCTGTTGCTG (site CCATAGGCTCA)”, the “recombinant barcode read abundance (log10)” value is 0.732.

On to “CCATAGGCTTGGGTTCTAACCTGTTGCTG (site GAGAGAACTAG)”, for which the “recombinant barcode read abundance (log10)” value is 0.0117. Regarding “CCATATGCTTGGGTTCTAACCTGTTGCCT (site AACACGACTGA)”, the “recombinant barcode read abundance (log10)” value was found to be 0.0524.

Take “CCATATGCTTGGGTTCTAACCTGTTGCCT (site CCATATGCTAG)”: the “recombinant barcode read abundance (log10)” value worked out at 0.148.

In the case of “CCATTCCCTTGGGTTCTAACCTGTTGCTA (site CCATTCCCTTA)”, the “recombinant barcode read abundance (log10)” value came out at 0.43. For the sequence “CCATTCCCTTGGGTTCTAACCTGTTGCTA (site TTGACGGCTAG)”, the “recombinant barcode read abundance (log10)” value stood at 0.0589. Regarding “CCATTGTCTTGGGTTCTAACCTGTTGCCG (site CCATTGTCTCG)”, the “recombinant barcode read abundance (log10)” value is 0.124. Next, “CCATTGTCTTGGGTTCTAACCTGTTGCCG (site GTTAGAACTAA)”: 0.128; “CCGAATTCTTGGGTTCTAACCTGTTGCTT (site CCGAATTCTAA)”: 0.113; “CCGAATTCTTGGGTTCTAACCTGTTGCTT (site TACCCACCTCT)”: 0.00604. “CCGAGTCCTTGGGTTCTAACCTGTTGCCT (site CCGAATCCTAG)”: the “recombinant barcode read abundance (log10)” value came out at 0.328. As for “CCGAGTCCTTGGGTTCTAACCTGTTGCCT (site CCGACTCCTAG)”, the “recombinant barcode read abundance (log10)” value worked out at 0.303. For the sequence “CCGAGTCCTTGGGTTCTAACCTGTTGCCT (site CCGAGTCCTAG)”, the “recombinant barcode read abundance (log10)” value was determined as 0.246.

As to “CCGAGTCCTTGGGTTCTAACCTGTTGCCT (site CCGATTCCTAG)”, the “recombinant barcode read abundance (log10)” value was 1.2.

For “CCGATATCTTGGGTTCTAACCTGTTGCCT (site CCGATATCTAG)”, the “recombinant barcode read abundance (log10)” value is 0.287. Turning to “CCGATATCTTGGGTTCTAACCTGTTGCCT (site CCGCTATCTAG)”, the “recombinant barcode read abundance (log10)” value was determined as 0.707. Take “CCGATATCTTGGGTTCTAACCTGTTGCCT (site CCGGTATCTAG)”: the “recombinant barcode read abundance (log10)” value worked out at 1.97. As for “CCGATATCTTGGGTTCTAACCTGTTGCCT (site CCGTTATCTAG)”, the “recombinant barcode read abundance (log10)” value amounted to 0.567. Regarding “CCGCAGACTTGGGTTCTAACCTGTTGCCA (site CCGCAGACTTG)”, the “recombinant barcode read abundance (log10)” value was found to be 0.0394. With “CCGCAGACTTGGGTTCTAACCTGTTGCCA (site TCGCAGACTAG)”, the “recombinant barcode read abundance (log10)” value came to 0.0447. For the sequence “CCGCATACTTGGGTTCTAACCTGTTGCCT (site CAGCATACTAG)”, the “recombinant barcode read abundance (log10)” value turned out to be 0.0752. With “CCGCATACTTGGGTTCTAACCTGTTGCCT (site CCGCATACTAG)” the figure was 0.277. As to “CCGCATACTTGGGTTCTAACCTGTTGCCT (site CGGCATACTAG)”, the “recombinant barcode read abundance (log10)” value was determined as 0.0516. For “CCGCATACTTGGGTTCTAACCTGTTGCCT (site CTGCATACTAG)”, the “recombinant barcode read abundance (log10)” value was 0.559. With “CCGCCGGCTTGGGTTCTAACCTGTTGCCT (site CCGCCAGCTAG)”, the “recombinant barcode read abundance (log10)” value amounted to 0. As for “CCGCCGGCTTGGGTTCTAACCTGTTGCCT (site CCGCCCGCTAG)”, the “recombinant barcode read abundance (log10)” value turned out to be 0.222. Consider “CCGCCGGCTTGGGTTCTAACCTGTTGCCT (site CCGCCGGCTAG)”, for which the “recombinant barcode read abundance (log10)” value worked out at 0.146. For “CCGCCGGCTTGGGTTCTAACCTGTTGCCT (site CCGCCTGCTAG)”, the “recombinant barcode read abundance (log10)” value came out at 0.0797. Turning to “CCGCCTGCTTGGGTTCTAACCTGTTGCCT (site CCGCCAGCTAG)”, the “recombinant barcode read abundance (log10)” value was 0.293. With “CCGCCTGCTTGGGTTCTAACCTGTTGCCT (site CCGCCCGCTAG)” the figure was 0.198. For “CCGCCTGCTTGGGTTCTAACCTGTTGCCT (site CCGCCGGCTAG)”, the “recombinant barcode read abundance (log10)” value was determined as 0.24. For the sequence “CCGCCTGCTTGGGTTCTAACCTGTTGCCT (site CCGCCTGCTAG)”, the “recombinant barcode read abundance (log10)” value is 0.0789. With “CCGCGTCCTTGGGTTCTAACCTGTTGCTA (site CCGCCTCCTTC)” the figure was 0.128; with “CCGCGTCCTTGGGTTCTAACCTGTTGCTA (site CCGCGTCCTTA)”, 0.111.

In the case of “CCGCTATCTTGGGTTCTAACCTGTTGCCT (site CCGATATCTAG)”, the “recombinant barcode read abundance (log10)” value came to 0.199.

Take “CCGCTATCTTGGGTTCTAACCTGTTGCCT (site CCGCTATCTAG)”: the “recombinant barcode read abundance (log10)” value amounted to 0.379.

For “CCGCTATCTTGGGTTCTAACCTGTTGCCT (site CCGGTATCTAG)”, the “recombinant barcode read abundance (log10)” value came to 0.104.

With “CCGCTATCTTGGGTTCTAACCTGTTGCCT (site CCGTTATCTAG)”, the “recombinant barcode read abundance (log10)” value turned out to be 0.0555. Take “CCGCTCGCTTGGGTTCTAACCTGTTGCCT (site CCGCTCGCTAG)”: the “recombinant barcode read abundance (log10)” value was determined as 0.146. Next, “CCGCTCGCTTGGGTTCTAACCTGTTGCCT (site CCGCTTACTAG)”: 0.117. As to “CCGTCGTCTTGGGTTCTAACCTGTTGCCT (site CCGTCATCTAG)”, the “recombinant barcode read abundance (log10)” value amounted to 0.0517. “CCGTCGTCTTGGGTTCTAACCTGTTGCCT (site CCGTCGTCTAG)”: the “recombinant barcode read abundance (log10)” value stood at 0.255. Regarding “CCGTCTACTTGGGTTCTAACCTGTTGCCA (site CCGTCTACTTG)”, the “recombinant barcode read abundance (log10)” value was found to be 0.121.

For the sequence “CCGTCTACTTGGGTTCTAACCTGTTGCCA (site TAACTGTCTAA)”, the “recombinant barcode read abundance (log10)” value is 0.164. For the sequence “CCGTCTACTTGGGTTCTAACCTGTTGCTC (site CCGTCTACTAA)”, the “recombinant barcode read abundance (log10)” value came out at 0.0412. As for “CCGTCTACTTGGGTTCTAACCTGTTGCTC (site CCGTCTACTCA)”, the “recombinant barcode read abundance (log10)” value was determined as 0.209. In the case of “CCGTCTACTTGGGTTCTAACCTGTTGCTC (site CCGTCTACTGA)”, the “recombinant barcode read abundance (log10)” value was 0.0724.
